According to ChEMBL document CHEMBL5108031, “Novel N-(4-thiocyanatophenyl)-1H-1,2,3-triazole-4-carboxamides exhibit selective cytotoxic activity at nanomolar doses towards human leukemic T-cells” (Eur J Med Chem, 2022):
The source made the active and inactive calls. The rule behind the calls is not given here.

Key:
[1] = system: DNA; test: Binding affinity to DNA (unknown origin) assessed as DNA intercalation at 1 ug/ml by measuring amount of methyl green dye replaced from DNA-methyl green complex; type: nucleic-acid assay; conditions: Homo sapiens; dose 1.0 µg/ml
[2] = system: DNA; test: Binding affinity to DNA (unknown origin) assessed as DNA intercalation at 10 ug/ml by measuring amount of methyl green dye replaced from DNA-methyl green complex; type: nucleic-acid assay; conditions: Homo sapiens; dose 10.0 µg/ml
[3] = system: HCT-116; test: Antiproliferative activity against p53-deficient human HCT-116 cells incubated for 72 hrs and measured by MTT assay; type: functional
[4] = system: THP-1; test: Antiproliferative activity against human THP-1 cells incubated for 72 hrs and measured by MTT assay; type: functional
[5] = system: BALB/3T3; test: Antiproliferative activity against mouse BALB/3T3 cells incubated for 72 hrs and measured by MTT assay; type: functional
[6] = system: HEK293; test: Antiproliferative activity against human HEK293 cells incubated for 72 hrs and measured by MTT assay; type: functional
[7] = system: MDA-MB-231; test: Antiproliferative activity against human MDA-MB-231 cells incubated for 72 hrs and measured by MTT assay; type: functional
[8] = system: Jurkat; test: Antiproliferative activity against human Jurkat cells incubated for 72 hrs and measured by MTT assay; type: functional
[9] = system: MCF7; test: Antiproliferative activity against human MCF7 cells incubated for 72 hrs and measured by MTT assay; type: functional
[10] = system: KB 3-1; test: Antiproliferative activity against human KB 3-1 cells incubated for 72 hrs and measured by MTT assay; type: functional
[11] = system: K562; test: Antiproliferative activity against human K562 cells incubated for 72 hrs and measured by MTT assay; type: functional
[12] = system: SK-OV-3; test: Antiproliferative activity against human SK-OV-3 cells incubated for 72 hrs and measured by MTT assay; type: functional
[13] = system: HaCaT; test: Antiproliferative activity against human HaCaT cells incubated for 72 hrs and measured by MTT assay; type: functional
[14] = system: HeLa; test: Antiproliferative activity against human HeLa cells incubated for 72 hrs and measured by MTT assay; type: functional
[15] = system: A549; test: Antiproliferative activity against human A549 cells incubated for 72 hrs and measured by MTT assay; type: functional
[16] = system: WM793; test: Antiproliferative activity against human WM793 cells incubated for 72 hrs and measured by MTT assay; type: functional
[17] = system: HCT-116; test: Antiproliferative activity against human HCT-116 cells incubated for 72 hrs and measured by MTT assay; type: functional
[18] = molecular target: Heat shock protein HSP 90-alpha (Homo sapiens, UniProt P07900); test: Inhibition of Hsp90alpha (unknown origin)
[19] = system: Jurkat; test: Induction of DNA damage in human Jurkat cells assessed as DNA fragmentation at 0.5 uM measured by Diphenylamine assay; type: functional
[20] = system: Jurkat; test: Induction of apoptosis in human Jurkat cells assessed as appearance of apoptotic bodies at 0.5 uM measured after 24 hrs by Hoechst 33342/propidium iodide staining based fluorescence microscopic analysis; type: functional, cell-based
[21] = system: Jurkat; test: Induction of apoptosis in human Jurkat cells assessed as cellular membrane blebbing at 0.5 uM measured after 24 hrs by Hoechst 33342/propidium iodide staining based fluorescence microscopic analysis; type: functional, cell-based
[22] = system: Jurkat; test: Induction of apoptosis in human Jurkat cells assessed as decrease in mitochondrial membrane potential at 0.5 uM measured after 24 hrs by Rhodamine 123 fluorescence based assay; type: functional, cell-based
[23] = system: Jurkat; test: Induction of apoptosis in human Jurkat cells assessed as cell debris at 0.5 uM measured after 24 hrs by Hoechst 33342/propidium iodide staining based fluorescence microscopic analysis; type: functional
[24] = system: Jurkat; test: Induction of DNA damage in human Jurkat cells assessed as tail DNA at 0.5 uM measured after 24 hrs by comet assay; type: functional
[25] = system: DNA; test: Binding affinity to DNA (unknown origin) assessed as DNA intercalation at 10 uM by measuring amount of methyl green dye replaced from DNA-methyl green complex; type: nucleic-acid assay; conditions: Homo sapiens
[26] = system: Jurkat; test: Induction of DNA damage in human Jurkat cells assessed as olive tail moment at 0.5 uM measured after 24 hrs by comet assay; type: functional
[27] = system: DNA; test: Binding affinity to DNA (unknown origin) assessed as DNA intercalation at 1 uM by measuring amount of methyl green dye replaced from DNA-methyl green complex; type: nucleic-acid assay; conditions: Homo sapiens
[28] = system: Jurkat; test: Induction of apoptosis in human Jurkat cells assessed as condensed chromatin at 0.5 uM measured after 24 hrs by Hoechst 33342/propidium iodide staining based fluorescence microscopic analysis; type: functional, cell-based
[29] = organism: Homo sapiens; test: Inhibition of electrophoretic mobility of Plasmid DNA pEGFPc-1 (unknown origin) incubated for 6 hrs at 1 uM and measured by agarose gel electrophoresis method
[30] = system: Jurkat; test: Induction of apoptosis in human Jurkat cells assessed as fragmented DNA and nuclei at 0.5 uM measured after 24 hrs by Hoechst 33342/propidium iodide staining based fluorescence microscopic analysis; type: functional, cell-based
[31] = molecular target: DNA topoisomerase 2-alpha (Homo sapiens, UniProt P11388); test: Inhibition of DNA topoisomerase 2 alpha (unknown origin) measured by topoisomerase-mediated DNA relaxation assay
Chain of DNA topoisomerase 2-alpha (P11388 whole entry): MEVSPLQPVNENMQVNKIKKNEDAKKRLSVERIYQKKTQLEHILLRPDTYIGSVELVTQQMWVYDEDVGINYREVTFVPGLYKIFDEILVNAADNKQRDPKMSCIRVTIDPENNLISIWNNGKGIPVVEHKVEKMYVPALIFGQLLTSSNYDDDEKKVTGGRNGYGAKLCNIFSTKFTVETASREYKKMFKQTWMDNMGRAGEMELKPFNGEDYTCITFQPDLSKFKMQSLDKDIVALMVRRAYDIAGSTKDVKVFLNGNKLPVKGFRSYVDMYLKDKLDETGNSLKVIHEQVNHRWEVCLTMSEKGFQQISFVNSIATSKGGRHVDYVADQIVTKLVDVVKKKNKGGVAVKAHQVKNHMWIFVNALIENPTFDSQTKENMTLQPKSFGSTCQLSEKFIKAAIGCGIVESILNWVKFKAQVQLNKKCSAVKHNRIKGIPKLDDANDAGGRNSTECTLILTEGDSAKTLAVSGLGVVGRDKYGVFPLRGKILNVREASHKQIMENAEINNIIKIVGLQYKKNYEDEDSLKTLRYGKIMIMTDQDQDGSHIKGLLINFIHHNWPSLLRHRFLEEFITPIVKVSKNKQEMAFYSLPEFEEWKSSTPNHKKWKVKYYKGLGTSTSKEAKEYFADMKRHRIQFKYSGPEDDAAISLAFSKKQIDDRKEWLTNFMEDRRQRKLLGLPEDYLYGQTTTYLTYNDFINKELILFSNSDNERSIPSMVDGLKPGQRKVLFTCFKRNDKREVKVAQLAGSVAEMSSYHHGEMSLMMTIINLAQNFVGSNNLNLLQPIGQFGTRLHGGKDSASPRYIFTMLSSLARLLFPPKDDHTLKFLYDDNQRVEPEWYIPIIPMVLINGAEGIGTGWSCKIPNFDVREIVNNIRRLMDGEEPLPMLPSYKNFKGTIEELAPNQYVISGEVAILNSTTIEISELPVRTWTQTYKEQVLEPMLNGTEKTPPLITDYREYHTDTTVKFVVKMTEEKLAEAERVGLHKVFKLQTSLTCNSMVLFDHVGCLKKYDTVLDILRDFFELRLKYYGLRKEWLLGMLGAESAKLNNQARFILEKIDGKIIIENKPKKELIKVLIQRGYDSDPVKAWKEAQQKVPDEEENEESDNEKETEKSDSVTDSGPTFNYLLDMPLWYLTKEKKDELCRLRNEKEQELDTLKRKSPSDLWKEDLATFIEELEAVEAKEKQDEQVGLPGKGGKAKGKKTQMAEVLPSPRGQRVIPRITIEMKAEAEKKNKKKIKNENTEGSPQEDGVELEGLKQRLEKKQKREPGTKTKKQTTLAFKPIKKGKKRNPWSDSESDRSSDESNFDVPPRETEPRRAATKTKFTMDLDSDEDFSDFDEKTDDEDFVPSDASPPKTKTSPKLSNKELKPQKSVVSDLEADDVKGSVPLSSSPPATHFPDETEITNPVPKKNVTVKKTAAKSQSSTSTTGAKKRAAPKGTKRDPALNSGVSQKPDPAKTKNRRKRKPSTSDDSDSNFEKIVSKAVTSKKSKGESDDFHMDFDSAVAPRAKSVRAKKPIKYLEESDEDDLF

[32] = system: HOP-92; test: Antiproliferative activity against human HOP-92 cells; type: functional
[33] = system: SNB-75; test: Antiproliferative activity against human SNB-75 cells; type: functional

SMILES | GI50 [3] | GI50 [4] | GI50 [5] | GI50 [6] | GI50 [7] | GI50 [8] | GI50 [9] | GI50 [10] | GI50 [11] | GI50 [12] | GI50 [13] | GI50 [14] | GI50 [15] | GI50 [16] | GI50 [17] | also measured
CC[n+]1c(-c2ccccc2)c2cc(N)ccc2c2ccc(N)cc21 |  |  |  |  |  |  |  |  |  |  |  |  |  |  |  | Activity [1]: 24.7%; Activity [2]: 46.6%
CCCc1c(C(=O)Nc2ccc(SC#N)cc2)nnn1-c1ccccc1 | 39.6 µM | > 100 µM | 96.9 µM | > 100 µM | > 100 µM | 630 nM | 52 µM | 7.8 µM | 1.4 µM | 73.7 µM | > 100 µM | 48.8 µM | > 100 µM | 65.7 µM | 42.3 µM | 
CCNC(=O)c1nnn(-c2cc(C(C)C)c(O)cc2O)c1-c1ccc(CN2CCOCC2)cc1 |  |  |  |  |  |  |  |  |  |  |  |  |  |  |  | IC50 [18]: < 5 nM
COc1cccc2c1C(=O)c1c(O)c3c(c(O)c1C2=O)C[C@@](O)(C(=O)CO)C[C@@H]3O[C@H]1C[C@H](N)[C@H](O)[C@H](C)O1 [DOXORUBICIN] | 0.5 µM | 23.1 µM | 0.62 µM | 0.8 µM | 0.76 µM | 650 nM | 0.82 µM | 0.74 µM | 0.7 µM | 8.8 µM | 0.9 µM | 0.76 µM | 1.1 µM | 0.9 µM | 0.76 µM | Activity [19]: 64%; Activity [20]: Active; Activity [21]: Active; Activity [22]: Active; Activity [23]: Active; Activity [24]: 20.3%; Activity [25]: 54.2%; Activity [26]: 5.4; Activity [27]: 49.1%; Activity [28]: Active; inhibition [29]: Active; Activity [30]: Active
COc1cccc(-n2nnc(C(=O)Nc3ccc(SC#N)cc3)c2C)c1 | 39.8 µM | > 100 µM | > 100 µM | > 100 µM | > 100 µM | > 100000 nM | > 100 µM | > 100 µM | 84.5 µM | 64.6 µM | > 100 µM | > 100 µM | > 100 µM | > 100 µM | > 100 µM | 
Cc1ccc(Cl)c(-n2nnc(C(=O)Nc3ccc(SC#N)cc3)c2C)c1 | > 100 µM | > 100 µM | 100 µM | > 100 µM | > 100 µM | 66300 nM | > 100 µM | 68 µM | 6.6 µM | 9.6 µM | > 100 µM | > 100 µM | > 100 µM | > 100 µM | > 100 µM | 
COCc1c(C(=O)Nc2ccc(SC#N)cc2)nnn1-c1ccc(C)cc1 | 21.7 µM | > 100 µM | 75.7 µM | > 100 µM | > 100 µM | 4460 nM | > 100 µM | 53.6 µM | 42.5 µM | 46.4 µM | > 100 µM | > 100 µM | > 100 µM | 93.3 µM | 81.2 µM | 
COc1cc([C@@H]2c3cc4c(cc3[C@@H](NC(=O)c3cn(-c5ccc(Cl)cc5)nn3)[C@H]3COC(=O)[C@H]23)OCO4)cc(OC)c1OC |  |  |  |  |  |  |  |  |  |  |  |  |  |  |  | IC50 [31]: < 1000 nM
Cc1ccc(Cl)cc1-n1nnc(C(=O)Nc2ccc(SC#N)cc2)c1C | 8.2 µM | > 100 µM | 9.9 µM | 91.2 µM | 44.6 µM | 680 nM | 8.4 µM | 7.8 µM | 5.7 µM | 81.5 µM | > 100 µM | 91.3 µM | > 100 µM | 72.8 µM | 39.6 µM | 
Cc1ccc(-n2nnc(C(=O)Nc3cc(Cl)ccc3Cl)c2N)cc1 |  |  |  |  |  |  |  |  |  |  |  |  |  |  |  | GI50 [32]: 580 nM; TGI [32]: 5.9 µM; GI50 [33]: 580 nM; TGI [33]: 5.9 µM
Cc1ccc(-n2nnc(C(=O)Nc3ccc(SC#N)cc3)c2C)cc1C | > 100 µM | > 100 µM | 9.8 µM | > 100 µM | > 100 µM | 680 nM | 72 µM | 61 µM | 9.2 µM | > 100 µM | > 100 µM | > 100 µM | > 100 µM | 72.4 µM | > 100 µM | 
